Experimental data from the supplement of paper PMC13380429.

Legend:
Conditions in all cases: 72 h
HepG2 [1] = test: drug sensitivity score (DSS) for viability; higher = more toxic; extreme values may be limits of the assay
Vero E6 [2] = test: as above
Calu-3 [3] = test: as above
U2OS [4] = test: as above
Caco-2 [5] = test: as above
HepG2 [6] = test: cell viability relative to DMSO; higher = less toxic
Vero E6 [7] = test: as above
Calu-3 [8] = test: as above
U2OS [9] = test: as above
Caco-2 [10] = test: as above
HepG2 [11] = test: relative viability EC50 (midpoint between 100% and the lowest measured viability); higher = less toxic
Vero E6 [12] = test: as above
Calu-3 [13] = test: as above
U2OS [14] = test: as above
Caco-2 [15] = test: as above

Row | SMILES | drug sensitivity score (HepG2 [1]) | drug sensitivity score (Vero E6 [2]) | drug sensitivity score (Calu-3 [3]) | drug sensitivity score (U2OS [4]) | drug sensitivity score (Caco-2 [5]) | cell viability (HepG2 [6]; 1 nM) [%] | cell viability (HepG2 [6]; 10 nM) [%] | cell viability (HepG2 [6]; 100 nM) [%] | cell viability (HepG2 [6]; 1000 nM) [%] | cell viability (HepG2 [6]; 10000 nM) [%] | cell viability (Vero E6 [7]; 1 nM) [%] | cell viability (Vero E6 [7]; 10 nM) [%] | cell viability (Vero E6 [7]; 100 nM) [%] | cell viability (Vero E6 [7]; 1000 nM) [%] | cell viability (Vero E6 [7]; 10000 nM) [%] | cell viability (Calu-3 [8]; 1 nM) [%] | cell viability (Calu-3 [8]; 10 nM) [%] | cell viability (Calu-3 [8]; 100 nM) [%] | cell viability (Calu-3 [8]; 1000 nM) [%] | cell viability (Calu-3 [8]; 10000 nM) [%] | cell viability (U2OS [9]; 1 nM) [%] | cell viability (U2OS [9]; 10 nM) [%] | cell viability (U2OS [9]; 100 nM) [%] | cell viability (U2OS [9]; 1000 nM) [%] | cell viability (U2OS [9]; 10000 nM) [%] | cell viability (Caco-2 [10]; 1 nM) [%] | cell viability (Caco-2 [10]; 10 nM) [%] | cell viability (Caco-2 [10]; 100 nM) [%] | cell viability (Caco-2 [10]; 1000 nM) [%] | cell viability (Caco-2 [10]; 10000 nM) [%] | relative viability EC50 (HepG2 [11]) [µM] | relative viability EC50 (Vero E6 [12]) [µM] | relative viability EC50 (Calu-3 [13]) [µM] | relative viability EC50 (U2OS [14]) [µM] | relative viability EC50 (Caco-2 [15]) [µM]
1 | C[N+](C)(C)CC#CCN1CCCC1=O [oxotremorine-M] | 0 | 0 | 0 | 0 | 0 | 92 | 108 | 92 | 102 | 99.1 | 94.5 | 93.5 | 93.5 | 96 | 95.7 | 94.9 | 98.3 | 91 | 102 | 102 | 102 | 105 | 97.5 | 102 | 99.5 | 102 | 104 | 93.7 | 107 | 98.6 | > 10 | > 10 | > 10 | > 10 | > 10
2 | CC(=O)[C@H]1CC[C@H]2[C@@H]3CC[C@H]4C[C@](C)(O)CC[C@]4(C)[C@H]3CC[C@]12C [ganaxolone] | 0 | 0 | 0 | 0 | 0 | 93.4 | 108 | 94.2 | 102 | 101 | 89.8 | 103 | 91.2 | 95.7 | 106 | 96.7 | 94 | 98.5 | 98.4 | 102 | 98.8 | 99.4 | 101 | 100 | 100 | 95 | 98.7 | 98.2 | 98.7 | 101 | > 10 | > 10 | > 10 | > 10 | > 10
3 | CC(C)CC(NC(=O)OCC1c2ccccc2-c2ccccc21)C(=O)O (stereo in doubt) | 0 | 0 | 0 | 0 | 0 | 90.3 | 103 | 90.1 | 102 | 97.8 | 97.3 | 102 | 95.6 | 94.5 | 108 | 89.2 | 102 | 107 | 102 | 92.8 | 91 | 95.3 | 105 | 99.7 | 101 | 85.2 | 90.4 | 104 | 96.5 | 98.2 | > 10 | > 10 | > 10 | > 10 | > 10
4 | CNC[C@@H]1CC[C@@H](N)[C@@H](O[C@H]2[C@H](O)[C@@H](O[C@H]3OC[C@](C)(O)[C@H](NC)[C@H]3O)[C@H](N)C[C@@H]2N)O1 [micronomicin] | 0 | 0 | 0 | 0 | 0 | 93.8 | 96.8 | 105 | 100 | 106 | 98.9 | 99.8 | 98.6 | 99.4 | 99.4 | 105 | 113 | 105 | 98 | 95.5 | 96 | 104 | 99.1 | 102 | 99.3 | 98.4 | 96.1 | 104 | 96 | 97.5 | > 10 | > 10 | > 10 | > 10 | > 10
5 | CCCCCCCCCCCCCCCCOc1nc2ccc(C)cc2c(=O)o1 [cetilistat] | 0 | 0 | 0 | 0 | 0 | 106 | 94 | 113 | 99.9 | 97.9 | 99.8 | 81.8 | 98 | 99.4 | 105 | 103 | 107 | 94.8 | 100 | 107 | 93.7 | 98.2 | 93.5 | 99.7 | 103 | 94.8 | 96.6 | 89.8 | 107 | 96.7 | > 10 | > 10 | > 10 | > 10 | > 10
6 | OC[C@H]1O[C@@H](c2ccc(F)c(Cc3cc4ccccc4s3)c2)[C@H](O)[C@@H](O)[C@@H]1O [ipragliflozin-L-proline] | 0 | 0 | 0 | 0 | 0 | 108 | 101 | 105 | 96.3 | 111 | 110 | 104 | 105 | 99.4 | 103 | 92.4 | 108 | 98 | 110 | 100 | 99.2 | 98.7 | 99.4 | 104 | 99 | 108 | 99.8 | 100 | 101 | 100 | > 10 | > 10 | > 10 | > 10 | > 10
7 | CN(CCc1ccc(Cl)c(Cl)c1)CCN1CCCC1 [BD-1008] | 0 | 0 | 0 | 0 | 0 | 91.5 | 107 | 104 | 117 | 106 | 100 | 96.2 | 94.2 | 95 | 106 | 95.8 | 98.5 | 94.6 | 96.9 | 101 | 97.4 | 96.5 | 97 | 93.2 | 93.3 | 101 | 96.7 | 95.5 | 93.8 | 94.2 | > 10 | > 10 | > 10 | > 10 | > 10
8 | CCc1nc2ccc(Cl)cn2c1C(=O)NCc1ccc(N2CCC(c3ccc(OC(F)(F)F)cc3)CC2)cc1 [Q-203] | 0.1 | 0 | 0 | 0 | 0.1 | 106 | 108 | 92.1 | 100 | 86.8 | 107 | 100 | 99.9 | 98.8 | 96.5 | 99.7 | 100 | 104 | 99.6 | 104 | 98.6 | 101 | 97.8 | 97.4 | 99.8 | 97.3 | 95.9 | 97.1 | 93.5 | 85.3 | > 10 | > 10 | > 10 | > 10 | > 10
9 | N#Cc1ccc(-c2ccc(S(=O)(=O)Nc3cccc(N)n3)cc2)cc1 | 1 | 0 | 0 | 0 | 0 | 100 | 98.3 | 104 | 97.6 | 79 | 97.4 | 96.3 | 95.9 | 93.9 | 90.8 | 99.6 | 104 | 98.9 | 107 | 104 | 101 | 97.2 | 101 | 99.4 | 95.1 | 87.9 | 95.5 | 95.4 | 96.7 | 91 | > 10 | > 10 | > 10 | > 10 | > 10
10 | CCCCCn1cc(C(=O)NC23CC4CC(CC(C4)C2)C3)c(=O)c2cc(-c3ccccc3)ccc21 [COR-170] | 0 | 0 | 0 | 0 | 0 | 103 | 93.6 | 91 | 105 | 92.1 | 100 | 97.7 | 103 | 106 | 94.8 | 105 | 89.2 | 104 | 98.2 | 97 | 96.2 | 99.9 | 98.3 | 94.7 | 99.9 | 90.9 | 103 | 100 | 100 | 98.3 | > 10 | > 10 | > 10 | > 10 | > 10
11 | NC(=O)c1ccc(-c2nc(-c3ccc4c(c3)OCCO4)c(-c3ccccn3)[nH]2)cc1 [D-4476] | 0 | 0 | 0 | 0 | 0 | 105 | 103 | 96.3 | 96 | 105 | 102 | 93.4 | 100 | 106 | 106 | 84.4 | 101 | 96.1 | 108 | 98.8 | 96.1 | 97.9 | 96.7 | 99.5 | 91.9 | 93 | 95.1 | 92.4 | 92.8 | 98.6 | > 10 | > 10 | > 10 | > 10 | > 10
12 | Nc1nc2ccc(Cl)cc2c2nc(-c3ccco3)nn12 | 13.8 | 0.2 | 0.4 | 0 | 2.2 | 91.5 | 104 | 87.7 | 33.5 | 23.2 | 96.1 | 97.6 | 94.2 | 100 | 85.9 | 109 | 92.8 | 96.9 | 98.5 | 84.9 | 102 | 100 | 103 | 97.7 | 98.3 | 100 | 91.6 | 104 | 88.1 | 76.7 | 0.297 | > 10 | > 10 | > 10 | > 10
13 | COc1cccc(OC)c1-c1ccc(C[C@H](NC(=O)c2c(Cl)cccc2Cl)C(=O)O)cc1 | 0 | 0 | 0 | 0 | 0 | 91.7 | 104 | 91 | 99.5 | 99.3 | 92.2 | 96.2 | 91.8 | 99.9 | 107 | 104 | 90.9 | 105 | 96.9 | 108 | 103 | 96.5 | 98.5 | 97.8 | 93.4 | 85.9 | 90.1 | 97.6 | 94.4 | 108 | > 10 | > 10 | > 10 | > 10 | > 10
14 | CCOC(=O)C1=C(C)NC(C)=C(C(=O)OC)C1c1cccc(Cl)c1Cl (stereo not given) [felodipine] | 0 | 0 | 0 | 0 | 0 | 105 | 107 | 99.5 | 99.2 | 96.9 | 99.2 | 103 | 101 | 103 | 94.7 | 89.8 | 101 | 111 | 98.2 | 102 | 106 | 96.7 | 99.7 | 97.4 | 100 | 101 | 102 | 104 | 91.8 | 99 | > 10 | > 10 | > 10 | > 10 | > 10
